Source: US20240400604A1, “NUCLEOSIDE TRIPHOSPHATE PHOTOAFFINITY PROBE, METHOD FOR PREPARING SAME, AND APPLICATIONS THEREOF” (SHANDONG UNIVERSITY, priority 2023, published 2024)

Assays:
[1] = tested on: GTP-binding proteins in HEK 293T cell lysates; test: Proteomic LC-MS/MS analysis of HEK 293T cell lysate labeled with GTP probes; parameters: species or system human
Procedure: Under optimized conditions, HEK 293T cell lysates were labeled using the GTP photoaffinity probes. Peptide samples were prepared via the On-Beads enzymatic digestion method for proteomic study. Approximately 1 mg of proteins was labeled with 0.1 mM GTP probe and irradiated with 365-nm UV light for 30 min. To the solution were added freshly prepared tris-(2-carboxyethyl)phosphine (TCEP) until its concentration reached 1 mM, and a CuAAC reaction mixture to reach a final concentration of 1 mM CuSO4, 0.1 mM tris[(1-benzyl-1H-1,2,3-triazol-4-yl)methyl]amine (TBTA), and 0.5 mM biotin-PEG3-azide (for GTP-O probe labeled samples), or 0.5 mM biotin-DADPS-azide (for GTP-N probe labeled samples). The mixture was vortexed at room temperature for 2 hours and then precipitated in ice-cold methanol overnight.
The precipitated proteins were dissolved in 100 μL 4% SDS buffer (4% SDS, 150 mM NaCl, 50 mM HEPES, pH=7.4), and diluted with 900 μL SDS-free HEPES buffer (150 mM NaCl, 50 mM HEPES, pH=7.4). High-capacity streptavidin beads (50 μL per sample) were washed three times with 20 times volume of wash buffer (150 mM sodium chloride, 50 mM HEPES, pH=7.4) before adding to the samples. After incubation on a rotary shaker at room temperature for 2 hours, non-specifically bound proteins were washed away in a centrifugal filtration column using 1× PBS containing 1% SDS, 10× PBS, 1× PBS, water, and 50 mM ammonium bicarbonate solution with 8 M urea, each wash using 1 mL of solution for five times. The beads were transferred to a centrifuge tube using 50 mM ammonium bicarbonate solution containing 8 M urea and resuspended with 500 μL of this solution. The disulfide bonds were reduced by adding 20 mM TCEP and incubating at 37° C. for 1 hour, and then alkylated with 50 mM iodacetamide at room temperature in the dark for 30 minutes. After centrifugation at 3000 rpm for 2 minutes, the supernatant was gently removed. The beads were washed with 25 mM ammonium bicarbonate three times, resuspended in 100 μL 25 mM ammonium bicarbonate, and incubated with 1 μg of MS-grade trypsin (1 μg/μL) at 37° C. for 18 hrs.
The beads were washed with 200 μL of 25 mM ammonium bicarbonate solution, then centrifuged at 12000 rpm for 2 minutes to collect the supernatant. The procedure was repeated 6 times, and the supernatants were combined to obtain sample 1 (peptides without probe modification). For GTP-O probe labeled samples, the beads were resuspended in 200 μL of 70% acetonitrile solution containing 1% trifluoroacetic acid, vortexed for 5 minutes, then centrifuged at 12000 rpm for 2 minutes to collect the supernatant. The procedure was repeated 5 times, and the supernatants were combined to obtain sample 2 (containing probe-modified peptides). For GTP-N probe labeled samples, the beads were resuspended in 100 μL of 10% formic acid, incubated on a rotary shaker at room temperature for 30 minutes, then centrifuged at 12000 rpm for 2 minutes to collect the supernatant. The procedure was repeated 3 times, and the supernatants were combined. Trifluoroacetic acid was added to a final concentration of 1%, and incubated at 37° C. for 30 minutes to obtain sample 2. The peptide solutions were dried with a centrifugal concentrator and desalted using C18 tips, then frozen at −80° C. until LC-MS/MS detection. Samples were dissolved in 20 μL of pure water, 4 μL of sample 1 and 8 μL of sample 2 were injected for analysis.
An EASY-nLC 1200 liquid chromatography coupled with a Q-Exactive Orbitrap mass spectrometer was employed for LC-MS/MS analysis. A homemade C18 capillary column (inner diameter 75 μm, column length 18 cm) packed with Reprosil-Pur120 C18-AQ (Dr. maisch, particle size […]) was utilized as the separation column. The precolumn (inner diameter 150 μm, column length 4 cm) was packed with Reprosil-Pur120 C18-AQ (Dr. maisch, particle size 5 μm,). The mobile phase A was 0.1% formic acid, while mobile phase B was 0.1% formic acid in 80% acetonitrile, and the flow rate was 300 nL/min. […]

[2] = Stability analysis of the probes under three pH conditions with HPLC; format: physicochemical; conditions: acidic condition with trifluoroacetic acid (pH=3), 0.4 mM probe, 37° C.
Procedure: Probes were incubated with 0.4 mM final concentration in different buffer at 37° C. for different time, and 10 μL of solution was taken out at each time point for HPLC analysis. A analytical column (Welch, Ultimate XB-C18, 5 μm, 4.6×250 mm) was used for the analysis, and untreated probes were used as controls. The mobile phase A was 50 mM […] (TEAA) buffer (pH=8), the mobile phase B was 50 mM TEAA in 30% ACN, the flow rate was 1 mL/min, the detection wavelength was 252 nm, and the column temperature was 30° C. Gradient elution conditions were as follows: 0-5 minutes, 5% B; 5-10 minutes, 5-30% B; 10-30 minutes, 30-40% B; 30-35 minutes, 40-100% B; 35-40 minutes, 100% B; 45-50 minutes, 5% B.

[3] = tested on: GTP-binding proteins in HEK 293T cell lysates; test: In-gel fluorescence imaging of HEK 293T cell lysate labeled with the GTP probes
Procedure: Appropriate amount cells were incubated on ice for 30 min in 1% lysis buffer (1% Triton X-100, 50 mM HEPES (pH 7.4), 150 mM NaCl, supplemented with phosphatase inhibitor A, phosphatase inhibitor B, and protease inhibitor right before use) at 5-10 times the cell volume. Vortexing for 5 seconds every 10 minutes. The cell lysates were centrifuged at 12,000 rpm at 4° C. for 30 min, and the supernatants were passed through an Amersham NAP-5 column to remove endogenous nucleosides. The proteins were quantified using a Bradford protein assay kit. Approximately 100 μg protein was diluted with 0.1% lysis buffer (0.1% Triton X-100, 50 mM HEPES, 150 mM sodium chloride). To the solution was added 1 mM magnesium chloride, the GTP probe and competitors to designated concentrations. The final volume for the reaction was 100 μL and the final protein concentration was […]. After incubated on ice, the solution was irradiated with 365-nm UV light for 30 min. To the solution were added freshly prepared tris-(2-carboxyethyl)phosphine (TCEP) until its concentration reached 1 mM, and a CuAAC reaction mixture to reach a final concentration of 1 mM CuSO4, 0.1 mM tris[(1-benzyl-1H-1,2,3-triazol-4-yl)methyl]amine (TBTA), and 0.1 mM rhodamine β-PEG3-azide. The mixture was incubated at room temperature for 2 hrs and then precipitated in a solution of chloroform: methanol: water (4:3:1, v/v). After washing with cold methanol and air dried, the protein pellet was dissolved in 30 μL 4% SDS buffer (4% SDS, 50 mM HEPES (pH 7.4), 150 mM NaCl, 50 mM Trolamine). The protein concentration was determined using a BCA protein assay kit. A solution of approximately 20 μg proteins was added 4×loading buffer (0.25M Trometamol, pH=6.8, 4% SDS, 40% Glycerol, 0.02% bromophenol blue, add 200 μL 2-Mercaptoethanol to 800 μL buffer right before use), boiled at 95° C. for 5 min and loaded onto an SDS-PAGE gel (4% stacking gel, 10% separating gel). Then perform SDS-PAGE separation at a constant voltage of 90 V for about 110 minutes. At the end of electrophoresis, cut the separation gel and imaged with an Amersham Imager 600 (GE Healthcare) at 520 nm. The gel was then stained with Coomassie Brilliant Blue staining solution (0.1% Coomassie brilliant blue, 10% acetic acid, 50% methanol) for 30 min and destained with destaining solution (10% acetic acid, 30% methanol) to remove background color.

[4] = three biological replicates, 0.1 mM probe, control probe = GTP-ctrl probe

In the case of `C#CCCC1(CCNP(=O)(O)OP(=O)(O)OP(=O)(O)OC[C@H]2O[C@@H](n3cnc4c(=O)[nH]c(N)nc43)C(O)[C@H]2O)N=N1` (stereo partly shown) [GTP-N probe], the “probe-modified sites on labeled proteins” value ([1]; LC-MS/MS of sample 2 (probe-modified peptides)) is reported as “several modified peptides of GTP-binding proteins were identified”, the “selectivity for annotated GTP-binding proteins” value ([1]; competition with GTP at 10 times probe concentration, LFQ, three biological replicates) is reported as “better selectivity than the GTP-O probe” and the GTP-binding proteins identified [1, 4] is reported as 115. For the same compound, the total proteins identified [1, 4] was 2461, the “time after which probe decomposed” value [2] was 0.5 h and the “protein labeling (in-gel fluorescence)” value ([3]; 0.1 mM probe, 1 mM MgCl2, FIG. 10a) was “stronger protein labeling compared to the GTP-O probe”. For the same compound, the “probe concentration at which cell lysate is effectively labeled” value ([3]; FIG. 9a (GTP-N probe), 365 nm UV, in-gel fluorescence) was 50 µM.
